Assay results reported in patent US12364702B2, “Highly active sting protein agonist compound” (ADLAI NORTYE BIOPHARMA CO., LTD., priority 2018, dated 2025).

Legend:
Format in all cases: cell-based
STING HAQ variant = biological target: T1, STING HAQ variant (Homo sapiens, UniProt Q86WV6, G230A/R293Q/R71H); test: SEAP reporter assay in HEK-Blue ISG KO-STING cells transfected with STING HAQ variant (Method 1); settings: 24 h, SEAP signal vs 0.5% DMSO
T1 construct: host or cells: HEK-Blue ISG KO-STING cells (Invivogen, hkb-kostg)
T1 sequence (Q86WV6 whole entry R71H/G230A/R293Q): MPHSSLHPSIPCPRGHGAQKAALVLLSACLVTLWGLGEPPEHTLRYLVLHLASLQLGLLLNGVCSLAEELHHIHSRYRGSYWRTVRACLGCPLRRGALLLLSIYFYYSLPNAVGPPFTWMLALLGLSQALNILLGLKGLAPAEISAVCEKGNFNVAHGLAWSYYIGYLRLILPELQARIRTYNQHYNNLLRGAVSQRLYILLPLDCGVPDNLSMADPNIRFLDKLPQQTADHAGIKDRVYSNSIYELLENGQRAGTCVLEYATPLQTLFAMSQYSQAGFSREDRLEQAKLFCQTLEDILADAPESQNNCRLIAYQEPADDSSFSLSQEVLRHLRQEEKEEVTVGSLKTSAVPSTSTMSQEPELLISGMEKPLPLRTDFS
Source text: (§1) Activation of STING can be determined using a SEAP reporter assay in HEK-Blue™ ISG KO-STING cells (Invivogen, cat #hkb-kostg) transfected with plasmids expressing STING variants (WT & HAQ) (referred to WO2017/175147A1). STING variants (WT & HAQ) vector were constructed based on STING-232H vector (Origene, RC208418). GFP vector (VT2069) was bought from Youbio. The detailed protocol as follows: HEK-Blue™ ISG KO-STING cells were harvest and seeding into 96 well plate, the final cell number was 0.8×10^5 cells/well. Transfections were prepared using Lipofectamine 2000 (Invitrogen, Cat #11668-027) following the manufacturer's instructions (Lipo2000/DNA=1/10), 20 ul of transfection suspension containing 1 ng STING vector was added to cell culture plate and incubated at 37° C., 5% CO2 for 24 hours. After 24 hours' incubation, compounds were added at proper concentration, and the final DMSO concentration was 0.5%. After 24 h incubation, the supernatant was collected to detect SEAP signal using Great EscAPe SEAP chemiluminescence KIT (Clontech, cat #631738) and cells were collected to detect cell viability using CellTiter-Glo Luminescent Cell Viability Assay (Promega, cat #G7573) following the manufacturer's instructions. The data were described by the ratio of the stimulating signal of compounds to 0.5% DMSO.

STING = STING (Homo sapiens, UniProt Q86WV6); test: IFN-β secretion from THP1 by STING activation (hIFNβ ELISA); settings: THP1 cells, 24 h incubation, IFN-β in supernatant, top dose set according to solubility; for EC50: read-out: hIFNβ ELISA (EC50)
STING, sequence (Q86WV6 whole entry): as the sequence (Q86WV6 whole entry R71H/G230A/R293Q) above, with H71R, A230G, Q293R counted along it
Protocol: In this assay, activation of STING by compounds was evaluated by detecting their ability to stimulate the secretion of IFN-β (interferon-beta) from THP1. THP1 was purchased from National Collection of Authenticated Cell Cultures (Cat #TCHu 57). The top dose of compounds was setted according to their solubility. First, Compounds were 3 times diluted with medium, 8-dose points in total. The final DMSO concentration was 0.2%. THP1 during the logarithmic phase was resuspended to 2×10^6 cells/ml in assay medium. The THP1-cell suspension was dispensed into a 96-well U bottom plate containing 50 ul of compound diluted in medium. After 24 h incubation at 37° C., 5% CO2, the supernatant was collected. The concentration of IFN-β in the supernatant was measured using a human IFNβ ELISA KIT (R&D, DY814-05). The data was fitted with GraphPad Prism or XLfit to calculate EC50 values.

STING WT variant = biological target: T2, STING WT variant (Homo sapiens, UniProt Q86WV6); test: SEAP reporter assay in HEK-Blue ISG KO-STING cells transfected with STING WT variant (Method 1); settings: 24 h, SEAP signal vs 0.5% DMSO
T2 construct: host or cells: HEK-Blue ISG KO-STING cells (Invivogen, hkb-kostg)
Source text: as §1

[1] = 1 ng STING vector, compound 5 uM
[2] = 1 ng STING vector, compound 2.5 uM

| Structure (SMILES) | Fold change related to DMSO control HAQ (STING HAQ variant; [1]) | hIFNβ ELISA (EC50, μM) (STING) | Fold change related to DMSO control WT (STING WT variant; [2]) | EC50 (STING) | other results |
| --- | --- | --- | --- | --- | --- |
| CCn1nc(C)cc1C(=O)Nc1nc2cc(C(N)=O)cc(OCCCNC(=O)CN(C)C)c2n1CCC[C@H]1COc2cc(C#N)cc3nc(NC(=O)c4cc(C)nn4CC)n1c23 [Example 15, (S)-1-(3-(7-cyano-2-(1-ethyl-3-methyl-1H-pyrazole-5-carboxamido)-3,4-dihydro-5-oxa-1,2a-diazaacenaphthylen-3-yl)propyl)-7-(3-(2-(dimethylamino)acetamido)propoxy)-2-(1-ethyl-3-methyl-1H-pyrazole-5-carboxamido)-1H-benzo[d]imidazole-5-carboxamide] | 11.61 | inactive | 2.11 |  |  |
| CCn1nc(C)cc1C(=O)Nc1nc2cc(C(N)=O)cc(OCCCOC)c2n1CCC[C@H]1COc2cc(C(N)=O)cc3nc(NC(=O)c4c(Br)c(C)nn4CC)n1c23 [Example 9, (S)-2-(4-bromo-1-ethyl-3-methyl-1H-pyrazole-5-carboxamido)-3-(3-(5-carbamoyl-2-(1-ethyl-3-methyl-1H-pyrazole-5-carboxamido)-7-(3-methoxypropoxy)-1H-benzo[d]imidazol-1-yl)propyl)-3,4-dihydro-5-oxa-1,2a-diazaacenaphthylene-7-carboxamide] | 14.14 |  | 2.27 | 2.6 µM |  |
| CCn1nc(C)cc1C(=O)Nc1nc2cc(C(N)=O)cc(OCCOCCOC)c2n1CCC[C@H]1COc2cc(C(N)=O)cc3nc(NC(=O)c4cc(C)nn4CC)n1c23 [Example 25, (S)-3-(3-(5-carbamoyl-2-(1-ethyl-3-methyl-1H-pyrazole-5-carboxamido)-7-(2-(2-methoxyethoxy)ethoxy)-1H-benzo[d]imidazol-1-yl)propyl)-2-(1-ethyl-3-methyl-1H-pyrazole-5-carboxamido)-3,4-dihydro-5-oxa-1,2a-diazaacenaphthylene-7-carboxamide] | 46.51 |  | 1.95 | 0.7 µM |  |
| CCn1nc(C)cc1C(=O)Nc1nc2cc(C(N)=O)cc(OCCCNC(=O)CN(C)C)c2n1CCC[C@H]1COc2cc(C(N)=O)cc3nc(NC(=O)c4cc(C)nn4CC)n1c23 [Example 20, (S)-3-(3-(5-carbamoyl-7-(3-(2-(dimethylamino)acetamido)propoxy)-2-(1-ethyl-3-methyl-1H-pyrazole-5-carboxamido)-1H-benzo[d]imidazol-1-yl)propyl)-2-(1-ethyl-3-methyl-1H-pyrazole-5-carboxamido)-3,4-dihydro-5-oxa-1,2a-diazaacenaphthylene-7-carboxamide] | 41.58 |  | 2.63 | 11.4 µM |  |
| COCCCOc1cc(C(N)=O)cc2nc(NC(=O)c3cc(C)nn3CCF)n(CCC[C@H]3COc4cc(C(N)=O)cc5nc(NC(=O)c6cc(C)nn6CCF)n3c45)c12 [Example 10, (S)-3-(3-(5-carbamoyl-2-(1-(2-fluoroethyl)-3-methyl-1H-pyrazole-5-carboxamido)-7-(3-methoxypropoxy)-1H-benzo[d]imidazol-1-yl)propyl)-2-(1-(2-fluoroethyl)-3-methyl-1H-pyrazole-5-carboxamido)-3,4-dihydro-5-oxa-1,2a-diazaacenaphthylene-7-carboxamide] | 16.63 | inactive | 1.98 |  |  |
| CCn1nc(C)cc1C(=O)Nc1nc2cc(C(N)=O)cc(OCCCNC(=O)C[C@H]3COCCN3)c2n1CCC[C@H]1COc2cc(C(N)=O)cc3nc(NC(=O)c4cc(C)nn4CC)n1c23 [Example 33] | 16.31 |  | 1.88 | 12 µM |  |
| CCn1nc(C)cc1C(=O)Nc1nc2cc(C(N)=O)cc(OCCCOC)c2n1CC[C@H]1COc2cc(C(N)=O)cc3nc(NC(=O)c4cc(C)nn4CC)n1c23 [Example 7, (S)-3-(2-(5-carbamoyl-2-(1-ethyl-3-methyl-1H-pyrazole-5-carboxamido)-7-(3-methoxypropoxy)-1H-benzo[d]imidazol-1-yl)ethyl)-2-(1-ethyl-3-methyl-1H-pyrazole-5-carboxamido)-3,4-dihydro-5-oxa-1,2a-diazaacenaphthylene-7-carboxamide] |  | inactive |  |  | Fold change related to DMSO control HAQ (STING HAQ variant; compound 80.2 uM): 20.29; Fold change related to DMSO control WT (STING WT variant; compound 80.2 uM): 1.96 |
| CCn1nc(C)cc1C(=O)Nc1nc2cc(C(N)=O)cc(OC)c2n1CCC[C@H]1COc2cc(C(N)=O)cc3nc(NC(=O)c4cc(C)nn4CC)n1c23 [Example 5, (S)-3-(3-(5-carbamoyl-2-(1-ethyl-3-methyl-1H-pyrazole-5-carboxamido)-7-methoxy-1H-benzo[d]imidazol-1-yl)propyl)-2-(1-ethyl-3-methyl-1H-pyrazole-5-carboxamido)-3,4-dihydro-5-oxa-1,2a-diazaacenaphthylene-7-carboxamide] |  |  |  | 3.7 µM | Fold change related to DMSO control HAQ (STING HAQ variant; compound 22.1 uM): 22.85; Fold change related to DMSO control WT (STING WT variant; compound 22.1 uM): 1.41 |
| CCn1nc(C)cc1C(=O)Nc1nc2cc(C(N)=O)cc(OCCCNC(C)=O)c2n1CCC[C@H]1COc2cc(C(N)=O)cc3nc(NC(=O)c4cc(C)nn4CC)n1c23 [Example 22, (S)-3-(3-(7-(3-acetamidopropoxy)-5-carbamoyl-2-(1-ethyl-3-methyl-1H-pyrazole-5-carboxamido)-1H-benzo[d]imidazol-1-yl)propyl)-2-(1-ethyl-3-methyl-1H-pyrazole-5-carboxamido)-k, 3,4-dihydro-5-oxa-1,2a-diazaacenaphthylene-7-carboxamide] | 47.36 |  | 2.40 | 3.9 µM |  |
| CCn1nc(C)cc1C(=O)Nc1nc2cc(C(N)=O)cc3c2n1[C@@H](CCCn1c(NC(=O)c2cc(C)nn2CCF)nc2cc(C(N)=O)cc(OCCCOC)c21)CO3 [Example 12, (S)-3-(3-(5-carbamoyl-2-(1-(2-fluoroethyl)-3-methyl-1H-pyrazole-5-carboxamido)-7-(3-methoxypropoxy)-1H-benzo[d]imidazol-1-yl)propyl)-2-(1-ethyl-3-methyl-1H-pyrazole-5-carboxamido)-3,4-dihydro-5-oxa-1,2a-diazaacenaphthylene-7-carboxamide] | 26.28 |  | 1.89 | > 9.1 µM |  |
| CCn1nc(C)cc1C(=O)Nc1nc2cc(C(N)=O)cc(OCCCO)c2n1CCC[C@H]1COc2cc(C(N)=O)cc3nc(NC(=O)c4cc(C)nn4CC)n1c23 [Example 6, (S)-3-(3-(5-carbamoyl-2-(1-ethyl-3-methyl-1H-pyrazole-5-carboxamido)-7-(3-hydroxypropoxy)-1H-benzo[d]imidazol-1-yl)propyl)-2-(1-ethyl-3-methyl-1H-pyrazole-5-carboxamido)-3,4-dihydro-5-oxa-1,2a-diazaacenaphthylene-7-carboxamide] |  |  |  | 4.8 µM | Fold change related to DMSO control HAQ (STING HAQ variant; compound 57.9 uM): 32.88; Fold change related to DMSO control WT (STING WT variant; compound 57.9 uM): 1.71 |
| CCn1nc(C)cc1C(=O)Nc1nc2cc(C(N)=O)cc(OCCCOC)c2n1CCC[C@@H]1COc2cc(C(N)=O)cc3nc(NC(=O)c4cc(C)nn4CC)n1c23 [Example 2, (R)-3-(3-(5-Carbamoyl-2-(1-ethyl-3-methyl-1H-pyrazole-5-carboxamido)-7-(3-methoxypropoxy)-1H-benzo[d]imidazol-1-yl)propyl)-2-(1-ethyl-3-methyl-1H-pyrazole-5-carboxamido)-3,4-dihydro-5-oxa-1,2a-diazaacenaphthylene-7-carboxamide] |  | inactive |  |  | Fold change related to DMSO control HAQ (STING HAQ variant; compound 15.65 uM): 2.52; Fold change related to DMSO control WT (STING WT variant; compound 15.65 uM): 1.99 |
